One data set addresses T1, HDAC1 (Homo sapiens, UniProt Q13547).
T1 construct: purchased Biovision Company
In words: HDAC1 inhibitor screening kit (Biovision), in vitro inhibitory activity. The data set is classed as biochemical. The procedure: (§1) The in vitro inhibitory activity of histone deacetylase of the compound was determined according to the instructions of HDAC1 and HDAC6 inhibitor screening kit (Biovision Company).

The target of a further data set is T2, HDAC6 (Homo sapiens, UniProt Q9UBN7).
T2 construct: purchased Biovision Company
T2 sequence (Q9UBN7 1-1215): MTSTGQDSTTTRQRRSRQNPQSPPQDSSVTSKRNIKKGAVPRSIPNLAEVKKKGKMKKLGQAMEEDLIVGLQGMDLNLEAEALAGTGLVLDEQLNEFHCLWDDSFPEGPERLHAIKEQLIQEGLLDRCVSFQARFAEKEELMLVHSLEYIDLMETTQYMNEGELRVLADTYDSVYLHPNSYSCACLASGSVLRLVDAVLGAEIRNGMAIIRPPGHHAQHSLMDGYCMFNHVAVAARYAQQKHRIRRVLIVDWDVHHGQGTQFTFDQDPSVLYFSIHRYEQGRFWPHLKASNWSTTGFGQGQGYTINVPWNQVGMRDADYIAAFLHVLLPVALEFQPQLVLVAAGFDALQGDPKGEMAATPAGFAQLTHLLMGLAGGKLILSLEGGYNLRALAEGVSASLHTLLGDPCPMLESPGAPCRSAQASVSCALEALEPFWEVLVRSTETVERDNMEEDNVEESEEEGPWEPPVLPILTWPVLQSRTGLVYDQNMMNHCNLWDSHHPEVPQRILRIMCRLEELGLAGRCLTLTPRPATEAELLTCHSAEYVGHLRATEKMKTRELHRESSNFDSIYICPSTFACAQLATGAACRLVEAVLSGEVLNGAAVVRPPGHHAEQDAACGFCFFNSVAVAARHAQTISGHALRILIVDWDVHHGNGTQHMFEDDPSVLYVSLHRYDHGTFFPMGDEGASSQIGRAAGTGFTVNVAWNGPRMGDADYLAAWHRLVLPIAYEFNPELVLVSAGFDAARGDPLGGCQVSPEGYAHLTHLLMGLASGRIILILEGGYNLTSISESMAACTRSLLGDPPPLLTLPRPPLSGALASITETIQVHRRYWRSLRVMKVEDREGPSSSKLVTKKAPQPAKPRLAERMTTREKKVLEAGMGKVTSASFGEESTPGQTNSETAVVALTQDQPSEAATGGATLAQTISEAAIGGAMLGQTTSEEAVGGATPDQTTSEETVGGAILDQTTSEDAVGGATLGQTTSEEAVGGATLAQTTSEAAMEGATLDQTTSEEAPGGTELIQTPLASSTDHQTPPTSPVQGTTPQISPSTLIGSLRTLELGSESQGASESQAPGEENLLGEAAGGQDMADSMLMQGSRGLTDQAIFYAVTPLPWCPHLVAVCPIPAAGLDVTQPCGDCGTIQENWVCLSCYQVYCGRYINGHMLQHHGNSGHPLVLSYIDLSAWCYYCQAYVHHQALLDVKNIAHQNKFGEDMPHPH
In words: HDAC6 inhibitor screening kit (Biovision), in vitro inhibitory activity. It counts as biochemical. On the procedure: as §1

Another data set deals with glioma cell line U-87MG. In words: In vitro anti-proliferative activity (CCK8), U-87MG. It counts as cell-based. The settings on record: Homo sapiens, 10 μM, 48 hours, CCK8, class symbol, read-out: U-87MG (Glioma) Inh % in 10 μM.
The subject of data set [1] is mixed cells and primary neurons in rat cortex. Briefly: Protective effect on HCA-induced neuronal cell damage. The following applies: HCA 5 mmol/L; test concentration 0.1, 1.0 and 10.0 μM; compared with Tubastatin A at the same dose. The data set is classed as cell-based.
In a further data set the target is T3, hERG potassium channels (Homo sapiens, UniProt Q12809).
T3 construct: expressed in transfected cells
Briefly: hERG potassium channel whole-cell patch clamp. It counts as cell-based. The settings on record: hERG-HEK293 cells, IKr current. From the text: Whole-cell patch clamp technique was used to record the changes of hERG current (IKr) after different concentrations of compounds acted on HEK293 cells (hERG-HEK293 steady-state cells) expressing hERG potassium channels to study the half inhibitory concentration (IC50) of the above compounds on IKr.

In data set [2] the test system is human lung cancer cell line A549. In words: In vitro anti-proliferative activity (CCK8), A549. The data set is classed as cell-based. The settings on record: A549, 10 μM, 48 hours, CCK8, class symbol, read-out: A549 (Lung cancer) Inh % in 10 μM. On the procedure: (§2) The specific results are shown in the table (unit: […] Test method: The tumor cells in the logarithmic growth phase with good growth status were inoculated into 96-well plates at 4×10^3 per well, and 8 duplicate wells were set up in each group. The cells were cultured in a cell incubator, after the cells adhered to the wall, […]. […] The experiment was repeated 3 times, and the average of the experimental results was taken as the final experimental result, and the inhibition rate was calculated.

Data set [3] relates to human liver cancer cell line HepG2. Briefly: In vitro anti-proliferative activity (CCK8), HepG2. The data set is classed as cell-based. The settings on record: HepG2, 10 μM, 48 hours, CCK8, class symbol, read-out: Hep G2 (Liver cancer) Inh % in 10 μM. The procedure:
as §2

For data set [4], the system named is myeloma cell line RPMI 8226. Briefly: In vitro anti-proliferative activity (CCK8), RPMI 8226. The settings on record: Homo sapiens, 48 hours, class symbol, read-out: RPMI 8226 (Myeloma) Inh % in 10 μM. The data set is classed as cell-based. On the procedure: as §2
For data set [5], the system named is MRC-5 human normal embryo lung fibroblast. Briefly: In vitro anti-proliferative activity (CCK8), MRC-5 normal cells. It counts as cell-based. The following applies: MRC5, 10 μM, 48 hours, CCK8, class symbol, read-out: MRC-5 (Normal cell line) Inh % in 10 μM.
A short description of data set [6]: Maximum tolerance dose by intragastric administration. The settings on record: ICR, mouse, in vivo, po; mice, single intragastric administration, 14 days observation; read-out: maximum tolerated dose. On the procedure:
40 ICR mice, half male and half […], weighing 18 to 20 g, were divided into 4 groups with 10 animals in each group. After 6 hours of fasting, the test samples in each group were taken with sterilized plastic syringe and orally gavaged at a volume of 0.3 mL/10 g. The general physical signs of animals and the death of animals were recorded at 1, 2 and 4 hours after administration. […] The dead animals were dissected to observe whether there were any visible pathological changes in the organs of the animals, and pathological examinations were carried out on suspicious tissues and organs.

T1 sequence (Q13547 whole entry): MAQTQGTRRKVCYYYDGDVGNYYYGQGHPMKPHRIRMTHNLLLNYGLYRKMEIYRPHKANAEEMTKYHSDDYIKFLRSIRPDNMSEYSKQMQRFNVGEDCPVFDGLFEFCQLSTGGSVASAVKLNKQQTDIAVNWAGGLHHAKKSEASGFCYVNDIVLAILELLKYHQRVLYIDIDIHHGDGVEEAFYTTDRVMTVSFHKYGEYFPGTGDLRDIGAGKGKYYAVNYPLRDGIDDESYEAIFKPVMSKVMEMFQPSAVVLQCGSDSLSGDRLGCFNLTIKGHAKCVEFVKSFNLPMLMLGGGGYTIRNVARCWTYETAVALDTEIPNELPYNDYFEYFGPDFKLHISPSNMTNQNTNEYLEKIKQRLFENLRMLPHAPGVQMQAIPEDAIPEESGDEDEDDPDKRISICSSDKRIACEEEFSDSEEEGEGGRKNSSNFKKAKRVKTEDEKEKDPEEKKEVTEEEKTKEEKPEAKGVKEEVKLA
T3 sequence (Q12809 whole entry): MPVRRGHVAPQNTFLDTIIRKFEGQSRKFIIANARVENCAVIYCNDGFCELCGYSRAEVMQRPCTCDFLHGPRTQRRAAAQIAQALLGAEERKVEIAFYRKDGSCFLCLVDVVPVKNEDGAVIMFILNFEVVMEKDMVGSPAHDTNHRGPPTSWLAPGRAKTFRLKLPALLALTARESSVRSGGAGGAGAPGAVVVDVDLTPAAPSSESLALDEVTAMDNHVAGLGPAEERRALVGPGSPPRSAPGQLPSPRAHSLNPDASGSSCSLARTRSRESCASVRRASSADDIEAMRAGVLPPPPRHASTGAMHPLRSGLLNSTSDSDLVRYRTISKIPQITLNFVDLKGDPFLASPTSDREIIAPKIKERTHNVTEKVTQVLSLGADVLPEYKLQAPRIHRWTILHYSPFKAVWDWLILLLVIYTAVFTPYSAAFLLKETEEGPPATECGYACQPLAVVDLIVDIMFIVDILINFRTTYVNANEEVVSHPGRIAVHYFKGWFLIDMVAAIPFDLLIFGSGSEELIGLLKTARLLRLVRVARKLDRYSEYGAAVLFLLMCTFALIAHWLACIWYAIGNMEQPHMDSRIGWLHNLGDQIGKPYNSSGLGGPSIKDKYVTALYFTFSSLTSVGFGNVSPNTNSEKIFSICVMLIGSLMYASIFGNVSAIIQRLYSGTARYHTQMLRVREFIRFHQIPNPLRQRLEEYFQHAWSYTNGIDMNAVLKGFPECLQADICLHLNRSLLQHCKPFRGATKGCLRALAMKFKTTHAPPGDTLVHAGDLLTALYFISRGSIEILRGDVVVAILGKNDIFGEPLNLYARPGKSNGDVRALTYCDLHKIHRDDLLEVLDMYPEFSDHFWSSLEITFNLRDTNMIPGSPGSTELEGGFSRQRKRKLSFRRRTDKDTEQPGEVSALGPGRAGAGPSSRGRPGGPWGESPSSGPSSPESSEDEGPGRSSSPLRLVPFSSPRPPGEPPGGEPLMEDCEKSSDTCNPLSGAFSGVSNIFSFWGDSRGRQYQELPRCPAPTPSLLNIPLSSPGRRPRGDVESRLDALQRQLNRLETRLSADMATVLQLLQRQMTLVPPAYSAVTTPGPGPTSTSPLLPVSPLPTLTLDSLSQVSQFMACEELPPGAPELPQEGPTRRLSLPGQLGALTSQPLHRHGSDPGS

`CN1CCCN(Cc2ccc(C(=O)NO)cc2)c2ccccc21` [Compound T-17]: the results for the IC50 against HDAC1 and against HDAC6 were greater than 500 nM and 7.4 nM, respectively.

Take `O=C(NO)c1ccc(CN2CCCCc3ccccc32)cc1F` [Compound T-24, 4-((2,3,4,5-tetrahydro-1H-benzo[b]azepin-1-yl)methyl)-2-fluoro-N-hydroxybenzamide]: the IC50 on HDAC1 is greater than 500 nM; against HDAC6, 12 nM.

On to `O=C(NO)c1ccc(CN2CCCCc3ccc(Br)cc32)cc1` [Compound T-3, 4-((8-bromo-2,3,4,5-tetrahydro-1H-benzo[b]azepin-1-yl)methyl)-N-hydroxybenzamide], for which the IC50 stood at 400 nM against HDAC1 and 43 nM on HDAC6.

As to `COc1cccc2c1CCN(Cc1ccc(C(=O)NO)cc1)CC2` [Compound T-26, 4-((6-methoxy-1,2,4,5-tetrahydro-3H-benzo[d]azepin-3-yl)methyl)-N-hydroxybenzamide], the IC50 at HDAC1 is greater than 500 nM; against HDAC6 it was 97 nM.

Turning to `O=C(NO)c1ccc(CN2CCCCc3ccc(C4CC4)cc32)cc1` [Compound T-12, 4-((8-cyclopropyl-2,3,4,5-tetrahydro-1H-benzo[b]azepin-1-yl)methyl)-N-hydroxybenzamide], the figures for the IC50 on HDAC1 and on HDAC6 were greater than 500 nM and 45 nM, respectively.

On to `COc1ccc2c(c1)CCN(Cc1ccc(C(=O)NO)cc1)CC2` [Compound T-25, 4-((7-methoxy-1,2,4,5-tetrahydro-3H-benzo[d]azepin-3-yl)methyl)-N-hydroxybenzamide], for which the IC50 against HDAC1 was greater than 500 nM; at HDAC6, 17 nM.

On to `COc1cccc2c1CCCCN2Cc1ccc(C(=O)NO)cc1` [Compound T-7, 4-((6-methoxy-2,3,4,5-tetrahydro-1H-benzo[b]azepin-1-yl)methyl)-N-hydroxybenzamide], for which the IC50 at HDAC1 turned out to be 277 nM; against HDAC6, 6.5 nM.

`O=C(NO)c1ccc(CN2CCCC(=O)c3ccccc32)cc1` [Compound T-18, 4-((5-oxo-2,3,4,5-tetrahydro-1H-benzo[b]azepin-1-yl)methyl)-N-hydroxybenzamide]: the IC50 at HDAC1 came out at 421 nM; at HDAC6, 7.2 nM.

As to `COc1ccc(Br)c2c1CCN(Cc1ccc(C(=O)NO)cc1)CC2` [Compound T-27, 4-((6-bromo-9-methoxy-1,2,4,5-tetrahydro-3H-benzo[d]azepin-3-yl)methyl)-N-hydroxybenzamide], the concentration for half-maximal inhibition (IC50) against HDAC1 came to 431 nM; on HDAC6 it was 29 nM.

Regarding `O=C(NO)c1ccc(CN2CCCCc3ccc(N4CCCCC4)cc32)cc1` [Compound T-14, 4-((8-(piperidin-1-yl)-2,3,4,5-tetrahydro-1H-benzo[b]azepin-1-yl)methyl)-N-hydroxybenzamide], the IC50 was greater than 500 nM on HDAC1 and 142 nM against HDAC6.

As to `COc1ccc2c(c1)N(Cc1ccc(C(=O)NO)cc1)CCCC2` [Compound T-6, 4-((8-methoxy-2,3,4,5-tetrahydro-1H-benzo[b]azepin-1-yl)methyl)-N-hydroxybenzamide], the IC50 against HDAC1 is 294 nM; on HDAC6 it was 8.2 nM.

Regarding `COc1cc2c(cc1OC)N(Cc1ccc(C(=O)NO)cc1)CCCC2` [Compound T-9, 4-((7,8-dimethoxy-2,3,4,5-tetrahydro-1H-benzo[b]azepin-1-yl)methyl)-N-hydroxybenzamide], the IC50 turned out to be 269 nM on HDAC1 and 8.6 nM at HDAC6.

`O=C(NO)c1ccc(CN2CCCCc3ccc(-c4ccncc4)cc32)cc1` [Compound T-11, 4-((8-(pyridin-4-yl)-2,3,4,5-tetrahydro-1H-benzo[b]azepin-1-yl)methyl)-N-hydroxybenzamide]: the values for the IC50 at HDAC1 and against HDAC6 were greater than 500 nM and 14.3 nM, respectively.

Consider `O=C(NO)c1ccc(CN2CCCCc3cc(F)ccc32)cc1` [Compound T-4, 4-((7-fluoro-2,3,4,5-tetrahydro-1H-benzo[b]azepin-1-yl)methyl)-N-hydroxybenzamide], for which the IC50 against HDAC1 came out at 414 nM; against HDAC6 it was 8.2 nM.

With `CN(C)C1CCCN(Cc2ccc(C(=O)NO)cc2)c2ccccc21` (centres unmarked) [Compound T-21, 4-((5-dimethylamino-2,3,4,5-tetrahydro-1H-benzo[b]azepin-1-yl)methyl)-N-hydroxybenzamide], the inhibition at 10 µM is 80 to 90% with glioma cell line U-87MG; 70 to 80% in data set [2]; 90 to 100% in data set [3]; 90 to 100% in data set [4]; less than 50% in data set [5]. Moreover, the “protective effect against HCA-induced neuronal excitotoxicity (cell survival rate)” value in data set [1] was “stronger than that of the HDAC6 inhibitor compound Tubastatin A”. On hERG potassium channels, the IC50 was greater than 10 µM. Moreover, in [6], the MTD at 14 days was greater than 1000 mg/kg.

On to `COc1cccc2c1N(Cc1ccc(C(=O)NO)cc1)CCCC2` [Compound T-8, 4-((9-methoxy-2,3,4,5-tetrahydro-1H-benzo[b]azepin-1-yl)methyl)-N-hydroxybenzamide], for which the IC50 came to 287 nM at HDAC1 and 9.2 nM at HDAC6.

Take `O=C(NO)c1ccc(CN2CCCCc3ccc(Cl)cc32)cc1` [Compound T-1, 4-((8-chloro-2,3,4,5-tetrahydro-1H-benzo[b]azepin-1-yl)methyl)-N-hydroxybenzamide]: the 50% inhibitory concentration (IC50) against HDAC1 was greater than 500 nM; at HDAC6, 37 nM.

Regarding `O=C(NO)c1ccc(CN2CCCCc3ccc(-c4ccccc4)cc32)cc1` [Compound T-10, 4-((8-phenyl-2,3,4,5-tetrahydro-1H-benzo[b]azepin-1-yl)methyl)-N-hydroxybenzamide], the IC50 against HDAC1 was greater than 500 nM; against HDAC6, 129 nM.

`CN(C)c1ccc2c(c1)N(Cc1ccc(C(=O)NO)cc1)CCCC2` [Compound T-13, 4-((8-dimethylamino-2,3,4,5-tetrahydro-1H-benzo[b]azepin-1-yl)methyl)-N-hydroxybenzamide]: the IC50 at HDAC1 is greater than 500 nM; against HDAC6, 85 nM.
